Assay results taken from ChEMBL document CHEMBL4680212, “Discovery of T-1101 tosylate as a first-in-class clinical candidate for Hec1/Nek2 inhibition in cancer therapy” (Eur J Med Chem, 2020).
Each block holds one compound with its values, some of them ahead of it.

Tests used:
[1] = AUC in CD-1 mouse at 10 mg/kg, po administered as single dose via gavage by LC-MS/MS analysis; format: ADME, organism-based; set-up: dose 10 mg/kg; conditions: in vivo
[2] = Oral bioavailability in CD-1 mouse at 10 mg/kg administered as single dose via gavage by LC-MS/MS analysis; format: ADME, organism-based; conditions: in vivo
[3] = system: MDA-MB-231; assay: Antiproliferative activity against human MDA-MB-231 cells measured after 96 hrs by CellTiter 96 Aqueous One Solution Reagent based assay; format: functional, cell-based; conditions: MDA-MB-231, 96 h
[4] = system: MDA-MB-468; assay: Antiproliferative activity against human MDA-MB-468 cells measured after 96 hrs by CellTiter 96 Aqueous One Solution Reagent based assay; format: functional, cell-based; conditions: MDA-MB-468, 96 h
[5] = system: K562; assay: Antiproliferative activity against human K562 cells measured after 96 hrs by CellTiter 96 Aqueous One Solution Reagent based assay; format: functional, cell-based; conditions: K562, 96 h
[6] = system: HeLa; assay: Antiproliferative activity against human HeLa cells measured after 96 hrs by CellTiter 96 Aqueous One Solution Reagent based assay; format: functional, cell-based
[7] = system: MDA-MB-468; assay: Induction of mitosis in human MDA-MB-468 cells assessed as mitotic abnormalities at 1 uM measured after 24 hrs by immunofluorescence staining based microscopic analysis (reference value: 23%); format: functional
[8] = system: MDA-MB-468; assay: Induction of mitosis in human MDA-MB-468 cells assessed as mitotic abnormalities at 1 uM measured after 48 hrs by immunofluorescence staining based microscopic analysis (reference value: 23%); format: functional
[9] = system: HeLa; assay: Cell cycle arrest in human HeLa cells assessed as accumulation at sub-G1 phase at 1 uM measured after 24 hrs by propidium iodide staining based FACS analysis (reference value: 3.64%); format: functional
[10] = system: HeLa; assay: Cell cycle arrest in human HeLa cells assessed as accumulation at G1 phase at 1 uM measured after 24 hrs by propidium iodide staining based FACS analysis (reference value: 66.51%); format: functional
[11] = system: HeLa; assay: Cell cycle arrest in human HeLa cells assessed as accumulation at S phase at 1 uM measured after 24 hrs by propidium iodide staining based FACS analysis (reference value: […]%); format: functional
[12] = system: HeLa; assay: Cell cycle arrest in human HeLa cells assessed as accumulation at G2/M phase at 1 uM measured after 24 hrs by propidium iodide staining based FACS analysis (reference value: 12.93%); format: functional
[13] = system: U-937; assay: Antiproliferative activity against human U-937 cells measured after 96 hrs by CellTiter 96 Aqueous One Solution Reagent based assay; format: functional
[14] = system: COLO 205; assay: Antiproliferative activity against human COLO 205 cells measured after 96 hrs by CellTiter 96 Aqueous One Solution Reagent based assay; format: functional
[15] = system: U2OS; assay: Antiproliferative activity against human U2OS cells measured after 96 hrs by CellTiter 96 Aqueous One Solution Reagent based assay; format: functional
[16] = biological target: Voltage-gated inwardly rectifying potassium channel KCNH2 (Homo sapiens, UniProt Q12809); assay: Inhibition of human ERG
[17] = Drug level in tumor of human Huh-7 cells xenografted SCID mouse at 10 mg/kg, iv measured after 0.5 hrs by LC-MS/MS analysis; format: ADME, organism-based, Neoplasm; conditions: read-out: Drug uptake
[18] = Drug level in tumor of human Huh-7 cells xenografted SCID mouse at 10 mg/kg, iv measured after 1 hr by LC-MS/MS analysis; format: ADME, organism-based, Neoplasm; conditions: read-out: Drug uptake
[19] = Drug level in tumor of human Huh-7 cells xenografted SCID mouse at 10 mg/kg, iv measured after 4 hrs by LC-MS/MS analysis; format: ADME, organism-based, Neoplasm; conditions: read-out: Drug uptake
[20] = Drug level in tumor of human Huh-7 cells xenografted SCID mouse at 10 mg/kg, iv measured after 8 hrs by LC-MS/MS analysis; format: ADME, organism-based, Neoplasm; conditions: read-out: Drug uptake
[21] = Drug level in tumor of human Huh-7 cells xenografted SCID mouse at 10 mg/kg, iv measured after 12 hrs by LC-MS/MS analysis; format: ADME, organism-based, Neoplasm; conditions: read-out: Drug uptake
[22] = Drug level in tumor of human Huh-7 cells xenografted SCID mouse at 10 mg/kg, iv measured after 24 hrs by LC-MS/MS analysis; format: ADME, organism-based, Neoplasm; conditions: read-out: Drug uptake
[23] = system: Huh-7; assay: Antiproliferative activity against human Huh-7 cells by CellTiter 96 Aqueous One Solution Reagent based assay; format: functional; set-up: dose or concentration left out as unconfirmed
[24] = system: Huh-7; assay: Anticancer activity against human Huh-7 cells after 24 hrs by CellTiter 96 Aqueous One Solution Reagent based assay; format: functional
[25] = Ratio of drug level in tumor to plasma of human Huh-7 cells xenografted SCID mouse at 10 mg/kg, iv measured after 0.5 hrs by LC-MS/MS analysis; format: ADME, organism-based; conditions: tumour
[26] = Ratio of drug level in tumor to plasma of human Huh-7 cells xenografted SCID mouse at 10 mg/kg, iv measured after 1 hr by LC-MS/MS analysis; format: ADME, organism-based; conditions: tumour
[27] = Ratio of drug level in tumor to plasma of human Huh-7 cells xenografted SCID mouse at 10 mg/kg, iv measured after 4 hrs by LC-MS/MS analysis; format: ADME, organism-based; conditions: tumour
[28] = Ratio of drug level in tumor to plasma of human Huh-7 cells xenografted SCID mouse at 10 mg/kg, iv measured after 8 hrs by LC-MS/MS analysis; format: ADME, organism-based; conditions: tumour
[29] = Ratio of drug level in tumor to plasma of human Huh-7 cells xenografted SCID mouse at 10 mg/kg, iv measured after 12 hrs by LC-MS/MS analysis; format: ADME, organism-based; conditions: tumour
[30] = Ratio of drug level in tumor to plasma of human Huh-7 cells xenografted SCID mouse at 10 mg/kg, iv measured after 24 hrs by LC-MS/MS analysis; format: ADME, organism-based; conditions: tumour
[31] = Drug level in tumor of human MDA-MB-231 cells xenografted SCID mouse at 10 mg/kg, iv measured after 2 hrs by LC-MS/MS analysis; format: ADME, organism-based, Neoplasm; conditions: read-out: Drug uptake
[32] = Ratio of drug level in tumor to plasma of human MDA-MB-231 cells xenografted SCID mouse at 10 mg/kg, iv measured after 2 hrs by LC-MS/MS analysis; format: ADME, organism-based; conditions: tumour
[33] = system: Huh-7; assay: Antitumor activity against human Huh-7 cells xenografted in SCID mouse assessed as tumor growth at 50 mg/kg, po administered twice daily for 28 days measured post last dose relative to control; format: functional; conditions: time 28 day
[34] = system: BT-474; assay: Antitumor activity against human BT-474 cells xenografted in SCID mouse assessed as tumor growth at 50 mg/kg, po administered twice daily for 28 days measured post last dose relative to control; format: functional; conditions: time 28 day
[35] = system: MCF7; assay: Antitumor activity against human MCF7 cells xenografted in SCID mouse assessed as tumor growth at 50 mg/kg, po administered twice daily for 28 days measured post last dose relative to control; format: functional; conditions: time 28 day
[36] = system: MDA-MB-231; assay: Antitumor activity against human MDA-MB-231 cells xenografted in SCID mouse assessed as tumor growth at 25 mg/kg, po administered twice daily for 28 days measured post last dose relative to control; format: functional; conditions: time 28 day
[37] = system: Huh-7; assay: Antitumor activity against human Huh-7 cells xenografted in SCID mouse assessed as tumor growth at 25 mg/kg, po administered once daily for 28 days measured post last dose relative to control; format: functional; conditions: time 28 day
[38] = system: Huh-7; assay: Antitumor activity against human Huh-7 cells xenografted in SCID mouse assessed as tumor growth at […], po administered twice daily for 28 days measured post last dose in presence of sorafenib relative to control; format: functional; conditions: time 28 day
[39] = system: Huh-7; assay: Antitumor activity against human Huh-7 cells xenografted in SCID mouse assessed as tumor growth at […], po administered twice daily for 28 days measured post last dose relative to control; format: functional; conditions: time 28 day
[40] = Tmax in CD-1 mouse at 10 mg/kg, po administered as single dose via gavage by LC-MS/MS analysis; format: ADME, organism-based; conditions: in vivo
[41] = Cmax in CD-1 mouse at 10 mg/kg, po administered as single dose via gavage by LC-MS/MS analysis; format: ADME, organism-based; set-up: route oral, dose 10 mg/kg; conditions: in vivo
[42] = Half life in CD-1 mouse at 10 mg/kg, po administered as single dose via gavage by LC-MS/MS analysis; format: ADME, organism-based; conditions: in vivo
[43] = Toxicity in Sprague-Dawley rat assessed as effect on locomotor activity up to 60 mg/kg, po administered as single dose; format: organism-based; conditions: in vivo
[44] = Toxicity in Sprague-Dawley rat assessed as restlessness up to 60 mg/kg, po administered as single dose; format: organism-based; conditions: in vivo
[45] = Toxicity in Sprague-Dawley rat assessed as lethargy up to 60 mg/kg, po administered as single dose; format: organism-based; conditions: in vivo
[46] = Toxicity in Sprague-Dawley rat assessed as tremor up to 60 mg/kg, po administered as single dose; format: organism-based; conditions: in vivo
[47] = Toxicity in Sprague-Dawley rat assessed as convulsion up to 60 mg/kg, po administered as single dose; format: organism-based; conditions: in vivo
[48] = Toxicity in Sprague-Dawley rat assessed as change in touch response up to 60 mg/kg, po administered as single dose; format: organism-based; conditions: in vivo
[49] = Toxicity in Beagle dog assessed as cardiopulmonary effect at 40 mg/kg, po administered as single dose; format: organism-based, Canis lupus familiaris; conditions: in vivo
[50] = Toxicity in Sprague-Dawley rat assessed as change in clinical pathology at 60 mg/kg, po measured during 28 days; format: organism-based; conditions: in vivo, time 28 day
[51] = Toxicity in Sprague-Dawley rat assessed as change in serum biochemistry at 60 mg/kg, po measured during 28 days; format: organism-based; conditions: in vivo, time 28 day
[52] = Toxicity in Sprague-Dawley rat assessed as effect on organ at 60 mg/kg, po measured during 28 days; format: organism-based; conditions: in vivo, time 28 day

Sequence of Voltage-gated inwardly rectifying potassium channel KCNH2 (Q12809 whole entry): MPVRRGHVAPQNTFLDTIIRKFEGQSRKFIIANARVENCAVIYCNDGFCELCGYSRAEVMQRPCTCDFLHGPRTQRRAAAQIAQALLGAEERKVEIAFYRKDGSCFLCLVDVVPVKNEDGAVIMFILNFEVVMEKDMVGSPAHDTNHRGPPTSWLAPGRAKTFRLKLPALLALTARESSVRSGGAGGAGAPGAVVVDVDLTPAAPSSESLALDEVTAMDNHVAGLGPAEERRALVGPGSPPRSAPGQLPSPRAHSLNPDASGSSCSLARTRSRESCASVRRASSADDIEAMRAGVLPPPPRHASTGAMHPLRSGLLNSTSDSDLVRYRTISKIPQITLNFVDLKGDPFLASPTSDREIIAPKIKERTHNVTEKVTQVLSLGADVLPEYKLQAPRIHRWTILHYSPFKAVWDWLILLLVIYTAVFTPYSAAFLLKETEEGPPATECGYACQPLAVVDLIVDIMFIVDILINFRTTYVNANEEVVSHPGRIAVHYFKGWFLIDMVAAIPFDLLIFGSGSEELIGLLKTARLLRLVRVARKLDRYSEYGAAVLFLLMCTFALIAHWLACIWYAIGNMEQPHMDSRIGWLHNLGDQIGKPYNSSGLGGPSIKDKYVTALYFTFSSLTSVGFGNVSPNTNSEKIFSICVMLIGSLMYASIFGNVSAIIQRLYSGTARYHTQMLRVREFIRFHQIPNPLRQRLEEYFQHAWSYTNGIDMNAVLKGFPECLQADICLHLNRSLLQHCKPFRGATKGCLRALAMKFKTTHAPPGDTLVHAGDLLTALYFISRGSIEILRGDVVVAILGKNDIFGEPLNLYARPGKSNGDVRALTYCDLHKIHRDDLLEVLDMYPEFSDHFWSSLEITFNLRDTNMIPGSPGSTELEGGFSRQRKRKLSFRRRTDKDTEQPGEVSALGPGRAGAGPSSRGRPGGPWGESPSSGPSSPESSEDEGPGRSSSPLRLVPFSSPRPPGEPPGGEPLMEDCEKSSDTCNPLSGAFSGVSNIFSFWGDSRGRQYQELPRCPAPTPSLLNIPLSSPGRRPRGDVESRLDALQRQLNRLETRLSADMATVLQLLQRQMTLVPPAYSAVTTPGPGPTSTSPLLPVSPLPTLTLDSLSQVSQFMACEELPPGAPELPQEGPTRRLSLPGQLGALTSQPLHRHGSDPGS

AUC [1]: 50.9 µM·h | bioavailability [2]: 84%
SMILES: COCCOc1cnc(Sc2cc(C)c(-c3csc(NC(=O)c4ccncc4)n3)c(C)c2)cn1.Cl

IC50 [3]: 14.8 nM | IC50 [4]: 21.5 nM | IC50 [5]: 18 nM | IC50 [6]: 21.1 nM | AUC [1]: 43.5 µM·h | bioavailability [2]: 50.6% | GI50 [13]: 12.4 nM | GI50 [14]: 29.1 nM | GI50 [15]: 83.2 nM | concentration at 0.5 h [17]: 3380 nM | concentration at 1 h [18]: 2660 nM | concentration at 4 h [19]: 2070 nM | concentration at 8 h [20]: 937 nM | concentration at 12 h [21]: 507 nM | concentration at 24 h [22]: 59.9 nM | GI50 [23]: 35 nM | GI50 [24]: 59.9 nM | Ratio [25]: 20.7% | Ratio [26]: 26.1% | Ratio [27]: 33.2% | Ratio [28]: 35% | Ratio [29]: 60.5% | Ratio [30]: 41.1% | concentration at 2 h [31]: 2950 nM | Ratio [32]: 24.1% | Tmax [40]: 0.5 h | Cmax [41]: 6300 nM | half-life [42]: 2.57 h
SMILES: COCCOc1cnc(Sc2cc(C)c(-c3csc(NC(=O)c4ccncc4)n3)c(C)c2)cn1
Activity [7]: 45% | Activity [8]: 64% | Activity [9]: 20.44% | Activity [10]: 54.2% | Activity [11]: 15.07% | Activity [12]: 9.27% | inhibition (INH) [16]: Not Active | T/C [33]: 18% | T/C [34]: 19% | T/C [35]: 52% | T/C [36]: 40% | T/C [37]: 25% | T/C [38]: 26% | T/C [39]: 61% | Activity [43]: Non-Toxic | Activity [44]: Non-Toxic | Activity [45]: Non-Toxic | Activity [46]: Non-Toxic | Activity [47]: Non-Toxic | Activity [48]: Non-Toxic | Activity [49]: Non-Toxic | Activity [50]: Non-Toxic | Activity [51]: Non-Toxic | Activity [52]: Non-Toxic
